# Test system: M. restricta
# Assay: Disc-diffusion assay, additional perfumery materials in DMSO, M. restricta, 4 days
# Assay type: cell-based, Malassezia restricta
# Details: Malassezia restricta, 96 h, read-out: Inhibition zone diameter (mm) on M. restricta
# Experimental: (§1) Anti-Malassezia effect of additional perfumery materials in DMSO was determined using disc-diffusion assay as described previously. Test samples solutions were prepared in DMSO to final concentrations of 0.5%, 1% or 2%. Discs (Whatman, 6 mm in diameter) were placed on inoculated agar plates. Aliquots (20 μL) of each sample solution was added to each disc. Agar plates were incubated at 30° C. for 4 days. After incubation, diameters of the clear inhibition zones around the discs were recorded
# as §1, with “above.” for “previously.”, “recorded.” for “recorded”
# Anti-Malassezia effect of additional perfumery materials in solvent in DMSO was determined using disc-diffusion assay, as described previously. Test samples solutions are prepared in DMSO to final concentrations of 0.5%. Discs (Whatman, 6 mm in diameter) were placed on inoculated agar plates. Aliquots (20 μL) of each sample solution was added to each disc. Agar plates were incubated at 30° C. for 4 days. After incubation, diameters of the clear inhibition zones around the discs were measured.
row,Compound,zone of inhibition at 0.5 %
1,"c1ccc(Oc2ccccc2)cc1 [1,1′-oxydibenzene]",7.4 mm

# Same assay, conditions: Malassezia restricta, 96 h; Table 18; 1% in DMSO, M. restricta, 4 days; read-out: Inhibition zone diameter (mm)
row,Compound,zone of inhibition at 1 %
1,CC(C)(O)Cc1ccc(CCC=O)cc1 [3-[4-(2-hydroxy-2-methylpropyl)phenyl]propanal],8.9 mm

# Same assay, conditions: Malassezia restricta, 96 h; Table 18; 2% in DMSO, M. restricta, 4 days; read-out: Inhibition zone diameter (mm)
row,Compound,zone of inhibition at 2 %
1,CC(C)(O)Cc1ccc(CCC=O)cc1 [3-[4-(2-hydroxy-2-methylpropyl)phenyl]propanal],16 mm

# Same assay, conditions: Malassezia restricta, 96 h; Table 19; in DMSO (1% or 2%, not specified per value), M. restricta, 4 days; read-out: Inhibition zone diameter (mm)
row,Compound,zone of inhibition
1,"CCCCCCCC=C/C=C/C=O [(2E)-2,4-dodecadienal]",21.5 mm
2,"CCCCCCC=C/C=C/C=O [(2E)-2,4-undecadienal]",26.6 mm
3,"CC/C=C/C=C/C=O [(2E,4E)-2,4-heptadienal]",> 40 mm
4,CCCCCCC/C=C\CCC=O [(4Z)-4-dodecenal],7.4 mm
5,CCCCCC/C=C/CO [(E)-2-nonen-1-ol],7.5 mm
6,CCCCCCCC/C=C/C=O [(E)-2-undecenal],> 40 mm
7,"CCCCC/C=C/C=C/C=O [(E,E)-2,4-decadienal]",> 40 mm
8,"CC/C=C/CC/C=C/C=O [(E,E)-2,6-nonadienal]",> 40 mm
9,CCCCCCC/C=C\C=O [(Z)-2-decenal],> 40 mm
10,CCCC/C=C\CCO [(Z)-3-octen-1-ol],7.1 mm
11,CCCCC/C=C\CCC=O [(Z)-4-decenal],7.2 mm
12,CC/C=C\CCCCO [(Z)-5-octen-1-ol],7.3 mm

# Same assay, conditions: Malassezia restricta, 96 h; Table 20; 0.5% in DMSO, 4 days; read-out: Inhibition zone diameter (mm) on M. restricta
row,Compound,zone of inhibition at 0.5 %
1,"Cc1cc2c(cc1C=O)C(C)(C)[C@H](C)[C@@H](C)C2(C)C (racemic) [(6RS,7RS)-3,5,5,6,7,8,8-heptamethyl-5,6,7,8-tetrahydro-2-naphthalenecarbaldehyde]",7.8 mm
2,"C=CC(C)CCCC(C)(C)O (racemic) [(+/−)-2,6-dimethyl-7-octen-2-ol]",7.5 mm
3,"CCC(=CCC1CC=C(C)C1(C)C)CO (racemic) [(+/−)-2-ethyl-4-(2,2,3-trimethyl-3-cyclopenten-1-yl)-2-buten-1-ol]",7 mm
4,CCCCCCCCC(C)C=O (racemic) [(+/−)-2-methyldecanal],7.1 mm
5,CCCCCCCCCC(C)C=O (racemic) [(+/−)-2-methylundecanal],7.1 mm
6,"CC(C)=CCCC(C)CC=O (racemic) [(+/−)-3,7-dimethyl-6-octenal]",7.3 mm
7,"CC(C=O)Cc1ccc2c(c1)OCO2 (racemic) [(+/−)-3-(1,3-benzodioxol-5-yl)-2-methylpropanal]",19 mm
8,CC(CC=O)CCc1ccccc1 (racemic) [(+/−)-3-methyl-5-phenylpentanal],7.6 mm
9,"Cc1ccc2c(c1)CC(C)(CO)C2 (racemic) [(+/−)-(2,5-dimethyl-2,3-dihydro-1H-inden-2-yl)methanol]",7 mm
10,"CC1=CCC(C/C=C(\C)CO)C1(C)C (racemic) [(+/−)-(2E)-2-methyl-4-(2,2,3-trimethyl-3-cyclopenten-1-yl)-2-buten-1-ol]",7.6 mm
11,"CC(C)=CCCC(C)CCOCC=O (racemic) [(+/−)-[(3,7-dimethyl-6-octen-1-yl)oxy]acetaldehyde]",9.7 mm
12,"C=C1CCCC(C)(C)C1C(=O)OC (racemic) [(+/−)-methyl 2,2-dimethyl-6-methylidenecyclohexanecarboxylate]",7.5 mm
13,"O=C1CCCCCCCCCCCC(=O)OCCO1 [1,4-dioxacycloheptadecane-5, 17-dione]",7.3 mm
14,"CC1=C(C=O)C(C)(C)CC=C1 [2,6,6-trimethyl-1,3-cyclohexadiene-1-carbaldehyde]",7.2 mm
15,"CC(C)CCCC(C)(C)O [2,6-dimethyl-2-heptanol]",7.7 mm
16,"CC(=O)OCCC1=CCC2CC1C2(C)C (stereo not drawn) [2-(6,6-dimethyl-bicyclo[3.1.1]hept-2-en-2-yl)ethyl acetate]",7.5 mm
17,CC(C=O)c1ccccc1 (stereo not drawn) [2-phenylpropanal],7 mm
18,"CC(=CC=O)CCC(C)=C(C)C [3,6,7-trimethyl-2,6-octadienal]",8.7 mm
19,"CC1(C)CC=C(CCC=O)CC1 [3-(4,4-dimethyl-1-cyclohexen-1-yl)propanal]",8.9 mm
20,"CC1(C)C2CC=C(CCC=O)C1C2 (stereo not drawn) [3-(6,6-dimethyl-bicyclo[3.1.1]hept-2-en-2-yl)propanal]",7.3 mm
21,COC(C)(C)C1CC=C(C)CC1 (stereo not drawn) [4-(2-methoxy-2-propanyl)-1-methylcyclohexene],7 mm

row,Compound,zone of inhibition at 0.5 %
1,COc1cc(C=O)ccc1OC(=O)C(C)C [4-formyl-2-methoxyphenyl 2-methylpropanoate],10.2 mm
2,"COC(OC)C(C)(C)CC=C(C)C [6,6-dimethoxy-2,5,5-trimethyl-2-hexene]",7.2 mm
3,"Cc1ccc2c(c1)OCC(=O)CO2 [7-methyl-2H-1,5-benzodioxepin-3(4H)-one]",7 mm
4,CCCCCC/C(C=O)=C\c1ccccc1 [(2E)-2-benzylideneoctanal],7.2 mm
5,C/C(C=O)=C\c1ccccc1 [(2E)-2-methyl-3-phenyl-2-propenal],8.1 mm
6,Cc1ccc(CC=O)cc1 [(4-methylphenyl)acetaldehyde],10.6 mm
7,CCCCC/C=C/CCC=O [(4E)-4-decenal],7.2 mm
8,"CC(C)=CCC[C@@H](C)CC=O [(+)-(R)-3,7-dimethyl-6-octenal]",7.1 mm
9,CCCCCC/C=C/C=O [(E)-2-nonenal],38 mm
10,CCCCC/C=C/C=O [(E)-2-octenal],24.8 mm
11,CCCCCCCCCC/C=C/C=O [(E)-2-tridecenal],15.2 mm
12,CC/C=C\CCOC(=O)C(C)C [(Z)-3-hexenyl isobutyrate],7.7 mm
13,CC/C=C\CCCCC=O [(Z)-6-nonenal],7.2 mm
14,"CC/C(=C\C[C@H]1CC=C(C)C1(C)C)CO [(−)-(2E)-2-ethyl-4-[(1R)-2,2,3-trimethyl-3-cyclopenten-1-yl]-2-buten-1-ol]",7.6 mm
15,"CC1(C)CCC[C@]2(C)[C@H]3CCO[C@]3(C)CC[C@@H]12 [(−)-(3aR,5aS,9aS,9bR)-3a,6,6,9a-tetramethyldodecahydronaphtho[2,1-b]furan]",7.7 mm
16,"CC(C)=CCC[C@@H](C)CC#N [(−)-(R)-3,7-dimethyl-6-octenenitrile]",7.2 mm
17,"CCCCC/C=C\C=C\C(=O)OCC [ethyl (2E,4Z)-2,4-decadienoate]",7.4 mm
18,CNc1ccccc1C(=O)OC [methyl 2-(methylamino)benzoate],7.4 mm
19,CCCCCCCCC=O [nonanal],7.3 mm
20,CCCCCCCC=O [octanal],7.5 mm

# Same assay, conditions: Malassezia restricta, 96 h; read-out: Inhibition zone diameter (mm)
row,Compound,zone of inhibition at 0.5 %
1,"C/C(=C\c1ccc(C)cc1)CC(C)C=O (racemic) [(+/−)-(4E)-2,4-dimethyl-5-(4-methylphenyl)-4-pentenal]",7.8 mm

# Same assay, conditions: Table 20; 0.5% in DMSO, 4 days
row,Compound,Inhibition zone diameter (mm) on M. restricta
1,"(1RS,2RS)-2,4-dimethyl-3-cyclohexene-1-carbaldehyde + (1RS,2SR)-2,4-dimethyl-3-cyclohexene-1-carbaldehyde",8.0 mm
2,"(2R)-2-methyl-4-[(1R)-2,2,3-trimethyl-3-cyclopenten-1-yl]-4-pentenal + (2S)-2-methyl-4-[(1R)-2,2,3-trimethyl-3-cyclopenten-1-yl]-4-pentenal",7.0 mm
3,(+)-(3S)-3-[(1R)-4-methyl-3-cyclohexen-1-yl]butanal + (+)-(3R)-3-[(1R)-4-methyl-3-cyclohexen-1-yl]butanal,7.3 mm
